Measured values from PubChem BioAssay (NCI).
Values joined by “and” are separate entries in the source; they are usually repeats but may differ in a detail not shown here. Identical values can stand only once.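 Assay format: 96-well plates, 48-hour exposure. At the GI50, growth is halved. TGI: total growth inhibition.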 Where a SMILES comes first, the peptide text is derived from it. [ ]: non-standard residue; d: D form. The star is where a group is joined. Phe(4-NO2) = N[CH](Cc1ccc([N+](=O)[O-])cc1)C(=O)O; Boc = CC(C)(C)OC(=O)*

Legend:
Experiment in all cases: DTP human tumour cell line panel, 48 h
[1] = system: HS 578T breast
[2] = system: MCF7 breast
[3] = system: NCI-H226 lung
[4] = system: OVCAR-5 ovarian
[5] = system: OVCAR-8 ovarian
[6] = system: SF-295 CNS
[7] = system: SK-OV-3 ovarian
[8] = system: SN12C renal
[9] = system: SNB-75 CNS
[10] = system: SK-MEL-2 melanoma

Structure (SMILES)	TGI [1]	TGI [2]	TGI [3]	TGI [4]	TGI [5]	TGI [6]	TGI [7]	TGI [8]	TGI [9]	TGI [10]	GI50 [1]	GI50 [2]	GI50 [3]	GI50 [4]	GI50 [5]	GI50 [6]	GI50 [10]	GI50 [8]	GI50 [9]	GI50 [7]
CCOC(=O)c1c(N2CCCC2)[nH]c(=O)c(C(c2ccc(N(C)C)cc2)c2c(O)c(C(=O)OCC)c(N3CCCC3)[nH]c2=O)c1O	> 100 µM	> 100 µM	> 100 µM	> 100 µM	> 100 µM	> 100 µM	> 100 µM	> 100 µM	> 100 µM											
COc1ccc(/C=C2\CCCc3ccccc3C2=O)cc1	37.1 µM	99.2 µM	2.98 µM	> 100 µM	> 44.5 µM		> 60.6 µM	16.9 µM	> 82.3 µM											
Cc1cc(C)c2c(c1)C/C(=C\c1cccc(C)c1C(=O)O)C2=O			> 100 µM	> 100 µM	> 100 µM	> 100 µM		> 100 µM	> 100 µM	> 100 µM										
O=C1CCCCC/C1=C\c1cccc(F)c1		> 100 µM		> 100 µM	> 100 µM	> 100 µM	> 100 µM	> 100 µM	> 100 µM	> 100 µM										
COc1c(C)c(C/C=C(\C)CCCC(C)CCCC(C)CCCC(C)C)c(OC)c2ccccc12 (stereo unspecified)	> 100 µM	> 100 µM		> 100 µM	> 100 µM	> 100 µM	> 100 µM	> 100 µM	> 100 µM	> 100 µM										
C/C(=N\Nc1nc2ccccc2[nH]1)c1ncccn1	> 100 µM			> 100 µM	> 39 µM	> 100 µM	> 100 µM	0.991 µM	> 90.3 µM	17.7 µM										
[N-]=[N+]=Nc1nc2ccccc2c(N=[N+]=[N-])c1Cl	> 100 µM	> 100 µM		> 100 µM		> 100 µM	> 100 µM	> 100 µM	> 100 µM	> 100 µM										
N/N=C(/N)SCCCCCCCCCCS/C(N)=N/N	> 100 µM	64.4 µM	83.1 µM	> 100 µM	39.3 µM	60.9 µM		> 100 µM		52.8 µM										
O=C(Nc1ccc(-n2cc(-c3ccncc3)c(-c3ccc(O)c(Cl)c3)n2)cc1)c1ccc(Cl)c(C(F)(F)F)c1	3.1 µM	> 50 µM	> 50 µM	> 50 µM	9.58 µM	4.15 µM		> 50 µM	> 50 µM	3.32 µM	0.702 µM	2.4 µM	> 50 µM	10.1 µM	1.84 µM	1.35 µM	1.22 µM	2.57 µM	2.23 µM	
O=C1C(N2CCN(CCOCCO)CC2)=C(Cl)C(=O)c2ncccc21		5.97 µM and 36.7 µM	> 100 µM	57.1 µM	39.4 µM	> 100 µM	> 100 µM	35.3 µM	> 100 µM	43.9 µM		18.3 µM	> 100 µM			> 100 µM				> 100 µM
Cc1nc(C)c(N2CCN(CN)CC2)c(=O)[nH]1	> 100 µM	> 100 µM	> 100 µM		> 100 µM	> 100 µM	> 100 µM	> 100 µM												
Cn1c2ccccc2n2c3ncccc3c(=O)cc12			> 100 µM	> 100 µM	> 100 µM	> 100 µM	> 100 µM	> 100 µM	> 100 µM											
Cc1nc2ccc(Cl)cc2c2c1CCO2	> 100 µM	> 100 µM	> 100 µM		> 100 µM	> 100 µM		> 100 µM	> 100 µM											
Oc1c(Cl)cc2cc1-c1cc(cc(Cl)c1O)CCc1c(cc(Cl)c(O)c1Cl)-c1cc(Cl)c(c(Cl)c1O)/C=C\2	33.7 µM		22.5 µM	19.5 µM	16.1 µM		18 µM		17.6 µM	17.5 µM										
CCOC(=O)CCc1cn2cc(Br)nc(OC)c2n1	> 100 µM	> 100 µM	> 100 µM		> 100 µM	> 100 µM	> 100 µM	> 100 µM	> 100 µM	> 100 µM										
O=CC(O)C(O)C(O)C(O)COC(=O)NCCCCC(=O)C(F)(F)C(F)(F)C(F)(F)C(F)(F)C(F)(F)C(F)(F)C(F)(F)F (stereo unspecified)	64.6 µM	34 µM		33.8 µM		59.3 µM	56.4 µM	> 100 µM	59.5 µM	57.5 µM										
CCOC(=O)CCC(NC(=O)C(Cc1ccc([N+](=O)[O-])cc1)NC(=O)OC(C)(C)C)C(=O)NC(CCC(=O)OCC)C(=O)OCC (stereo unspecified) (Boc-[Phe(4-NO2)]-Glu(OEt)-Glu(OEt)-OEt; configuration not given here)	53.1 µM	> 100 µM	35.9 µM	46.3 µM	40.3 µM			49.7 µM	31.5 µM	25.9 µM										
COc1cccc2c1OC1c3ccccc3OCC1(O)C2 (stereo unspecified)		> 100 µM	> 100 µM	> 100 µM	> 100 µM	> 100 µM	> 100 µM	> 100 µM	> 100 µM	> 100 µM										
Cc1ccc(S(=O)(=O)OCCC2CN(C(=O)OCc3ccccc3)C(C)(C)O2)cc1 (stereo unspecified)		33.7 µM	4.35 µM	> 100 µM	29.4 µM	> 100 µM	> 100 µM	> 100 µM		94.5 µM										
NC1CCCCC1NCCNC1CCCCC1N (stereo unspecified)	> 100 µM	> 100 µM	> 100 µM	56.6 µM	> 100 µM	> 100 µM	> 100 µM	> 100 µM		> 100 µM										
C=CC(C)(C)/C=C/c1ccc(O)cc1	> 100 µM	> 100 µM		> 100 µM	> 100 µM	> 100 µM	> 100 µM	> 100 µM		60.5 µM										
C/C(=C\Cc1ccc(F)cc1)CCCCCC/C(C)=C/Cc1ccc(F)cc1	78.1 µM	45.8 µM		37.9 µM	39.6 µM	24.6 µM	68.6 µM	31.5 µM	35 µM	37.2 µM										
C=C(Br)C[N+]12CN3CN(CN(C3)C1)C2	> 100 µM		> 100 µM	> 100 µM	> 100 µM	> 100 µM	> 100 µM	> 100 µM	> 100 µM	> 100 µM										
